This note sets out measurements from patent US20150141485A1, “PROGNOSIS AND TREATMENT OF LUNG CANCER USING miRNA-135b” (NATIONAL CHENG KUNG UNIVERSITY, priority 2013, published 2015).

For one data set, the system named is CL141 cells. As to the kind of experiment: Western blot of Hippo pathway proteins. In kind it is cell-based. The conditions noted are these: 72 hours. How it is done:
Western bolt analysis of the Hippo pathway proteins in CL1-5-F4 and CL141 cells incubated with Scramble (NC) of Antago-135b for 72 hours. Quantitative RT-PCR was used to assay miR-135b knockdown activity.
Background: Immunoblotting shows a protein as a band on a membrane.

The subject of data set [1] is Hop-62 cells. As to the kind of experiment: Transwell invasion assay. In kind it is cell-based. To be noted: Hop-62 cells transfected 48 hours, vs scramble (NC). How it is done: (§1) CL1-5-F4 and Hop-62 cells were transfected with scramble (NC) of miR-135b-specific antagomir (Antago-135b) for 48 hours and the subjected to migration assays (FIG. 2d) and invasion assays (FIG. 2e) as described above. *P<0.05;**P<0.005 by Student's t-test.
(§2) Transwell chambers ([…], BD Falcon, Franklin Lakes, N.J.) were coated with the appropriate amount of Matrigel (BD Biosciences, San Jose, Calif.). Next, 2.5×10^4 cells were suspended in NuSerum-containing media (Gibco BRL, Grand Island N.Y., USA), seeded in the chamber and cultured, Cells that invaded the chamber from top to bottom were fixed with methanol and stained with a solution of propidium iodine (Sigma-Aldrich, St. Louis, Mo.). The propidiumiodine-positive signal was quantified using Analytical Imaging Station software package. Each sample was assayed in triplicate.

The test system of data set [2] is Hop-62 cells. As to the kind of experiment: Migration assay (culture inserts). It is filed as cell-based. To be noted: Hop-62 cells transfected 48 hours, vs scramble (NC). The method, then:
as §1
For the migration assay, culture inserts (Ibidi, Munich, Germany) were inserted into 60-mm dishes. Next, the cell suspensions were seeded in each culture insert well at a concentration of 2.5×10^4 (CL1-0) or 3×10^4 (CL1-5-F4 and UACC-257) cells/mL. The culture inserts were removed to leave a gap of approximately 500 μm.

A further data set has as its system CL1-5 cells. As to the kind of experiment: Orthotopic lung cancer model. In kind it is in vivo, nude mice. How it is done:
CL1-5 cells were implanted orthotopically into the left lungs of 6-weeks-old nude mice (n=9). A series of scramble antagomir (NC) or miR-135b antagomir (Antago-135b) intravenous injections were performed every 2 days after tumor cell implantation. Lungs were harvested 25 days after the cells were implanted. […] Arrows indicate the visible nodules. […] Data are expressed as mean±s.e.m. *P<0.05 by Student's t-test.
Mice bearing CL1-5 cells were subjected to scramble antagomir (NC) or miR-135b antagomir (Antago-135b) treatment. Animal survival was determine using Kaplan-Meier survival analysis and the log-rank test for data obtained 25 days after the cancer cells were orthotopically injected (n=9).
Next, the effects of miR-135b inhibition on tumor growth and metastasis in an orthotopic lung cancer model were checked. Seven intravenous injections of miR-135b antagomir were given 4 days after CL1-5 implantation.

Data set [3] relates to CL1-5-F4 cells. As to the kind of experiment: Transwell invasion assay. To be noted: CL1-5-F4 cells transfected 48 hours, vs scramble (NC). It is filed as cell-based, human. The method, then: as §1
CL1-5-F4 cells transfected with plasmids expressing either control or miR-135b sponges were analyzed using in vitro invasion assay. The average number of invading cells obtained in the transwell invasion assay is presented (n=3).
as §2

Data set [4] has as its system CL1-5-F4 cells. The data set can be described thus: Western blot of endogenous LZTS1. It is filed as cell-based, human. The conditions noted are these: 100 nM, 48 hours. The method, then: CL1-5-F4 and UACC-257 cells were administrated with 100 nM of negative control (NC) or antago-135b for 48 hours. Total cell lysates were harvested for western blot analysis.
The subject of a further data set is LZTS1 3′-UTR. As to the kind of experiment: Luciferase reporter assay, LZTS1 3'-UTR. In kind it is cell-based. The conditions noted are these: CL1-0 cells co-transfected with miR-135b, vs Scramble. The method, then: CL1-0 cells were co-transfected with miR-135b, wild-type LZTS1 3′-UTR along with Scramble or miR-135-specific antagomir (Antago-135b). Luciferase activity was measured and is presented as described in FIG. 5a. Mean±s.d. is shown, *P<0.05; **P<0.005 by Student's t-test.
One day before transfection, CL1-0 cells were seeded at a concentration of 2.5×10^4 per well. Next, the pClneo vector or miR-135b plasmid was co-transfected with the pGL3-target gene-3′UTR. The Renilla lunciferase plasmid (phRL-TK, Promega, Madison, Wis.) was co-transfected as transfection control. Cells were lysed 36 hours after transfection, and luciferase activity was measured using a Dual-Luciferase system (Promega, Madison, Wis.) according to the manufacture's protocol.

The mark [5] stands for this setting: seven i.v. injections, 4 days after CL1-5 implantation, vs control lungs.

Oligonucleotides are written 5' to 3', each unit as a sugar letter and its base; * is a phosphorothioate linkage, no mark a phosphodiester; rarer units and linkages stand in square brackets, end groups in braces. Plain capitals give the bases only. {Chol} = cholesterol; m = 2'-O-methyl

As for “5′mU(*)mC(*)mAmCmAmUmAmG-mGmAmAmUmGmAmAmAmAmGmCmC(*)mA(*)mU(*)mA(*)(3′-Ch1)3′ (SEQ ID NO:8) (mU*mC*mAmCmAmUmAmGmGmAmAmUmGmAmAmAmAmGmCmC*mA*mU*mA*{Chol}) [miR-135b antagomir]”, in the data set on CL141 cells, the “LATS2, β-TrCP and NDR2 expressions” value is on record as “induced”; the TAZ protein expression entry is “reduced”. For the same substance, the invasive ability result with Hop-62 cells [1] is recorded as “inhibited these changes”. In the data set with Hop-62 cells [2], the migratory ability entry is “inhibited these changes”. Further, in the data set on CL1-5 cells (setting [5]), the orthotopic tumor growth entry was “inhibited orthotopic tumor growth” and the “volume of lung metastases” value is reported as “decrease the volume of lung metastases”. Further, in the data set with CL1-5 cells (systemic delivery in orthotopic tumor-bearing mice), the survival rates result is “increased survival rates”. In addition, in the data set on CL1-5-F4 cells [3], the invasive ability result is “inhibited these changes”. In addition, the LZTS1 expression result in the data set with CL1-5-F4 cells [4] is “significantly increased”. For the same substance, the “suppressive effects of miR-135b on LZTS1 3′-UTR-carrying luciferase” value with LZTS1 3′-UTR is “significantly reduced”.
